Earlier results, collected in patent US7060295B2, “Formulations for the prevention and treatment of insulin resistance and type 2 diabetes mellitus” (ChronoRX LLC, priority 2000, dated 2006).
Each block holds one compound with its values, some of them ahead of it.

Columns and labels:
[1] = in vivo
[2] = supplementation
[3] = target: sulfonylurea receptor (Homo sapiens, UniProt Q09428); settings: β-cell membrane receptors
[4] = tested on: perfused rat hearts
[5] = in vivo; remark: listed apart in the source
[6] = in vivo; remark: listed apart in the source
[7] = 1 year, 457 non-diabetic patients with android (abdominal) obesity
[8] = tested on: insulin secreting β-cells
[9] = not given; remark: listed apart in the source
[10] = oral 60 mg twice daily for 8 weeks
[11] = tested on: pancreatic islets; settings: islets simultaneously exposed to IL-1 beta
[12] = not given; remark: listed apart in the source
[13] = 600 mg/day, used alone, obese type 2 diabetes patients

Sequence of sulfonylurea receptor (Q09428 whole entry, the tested form may be a part): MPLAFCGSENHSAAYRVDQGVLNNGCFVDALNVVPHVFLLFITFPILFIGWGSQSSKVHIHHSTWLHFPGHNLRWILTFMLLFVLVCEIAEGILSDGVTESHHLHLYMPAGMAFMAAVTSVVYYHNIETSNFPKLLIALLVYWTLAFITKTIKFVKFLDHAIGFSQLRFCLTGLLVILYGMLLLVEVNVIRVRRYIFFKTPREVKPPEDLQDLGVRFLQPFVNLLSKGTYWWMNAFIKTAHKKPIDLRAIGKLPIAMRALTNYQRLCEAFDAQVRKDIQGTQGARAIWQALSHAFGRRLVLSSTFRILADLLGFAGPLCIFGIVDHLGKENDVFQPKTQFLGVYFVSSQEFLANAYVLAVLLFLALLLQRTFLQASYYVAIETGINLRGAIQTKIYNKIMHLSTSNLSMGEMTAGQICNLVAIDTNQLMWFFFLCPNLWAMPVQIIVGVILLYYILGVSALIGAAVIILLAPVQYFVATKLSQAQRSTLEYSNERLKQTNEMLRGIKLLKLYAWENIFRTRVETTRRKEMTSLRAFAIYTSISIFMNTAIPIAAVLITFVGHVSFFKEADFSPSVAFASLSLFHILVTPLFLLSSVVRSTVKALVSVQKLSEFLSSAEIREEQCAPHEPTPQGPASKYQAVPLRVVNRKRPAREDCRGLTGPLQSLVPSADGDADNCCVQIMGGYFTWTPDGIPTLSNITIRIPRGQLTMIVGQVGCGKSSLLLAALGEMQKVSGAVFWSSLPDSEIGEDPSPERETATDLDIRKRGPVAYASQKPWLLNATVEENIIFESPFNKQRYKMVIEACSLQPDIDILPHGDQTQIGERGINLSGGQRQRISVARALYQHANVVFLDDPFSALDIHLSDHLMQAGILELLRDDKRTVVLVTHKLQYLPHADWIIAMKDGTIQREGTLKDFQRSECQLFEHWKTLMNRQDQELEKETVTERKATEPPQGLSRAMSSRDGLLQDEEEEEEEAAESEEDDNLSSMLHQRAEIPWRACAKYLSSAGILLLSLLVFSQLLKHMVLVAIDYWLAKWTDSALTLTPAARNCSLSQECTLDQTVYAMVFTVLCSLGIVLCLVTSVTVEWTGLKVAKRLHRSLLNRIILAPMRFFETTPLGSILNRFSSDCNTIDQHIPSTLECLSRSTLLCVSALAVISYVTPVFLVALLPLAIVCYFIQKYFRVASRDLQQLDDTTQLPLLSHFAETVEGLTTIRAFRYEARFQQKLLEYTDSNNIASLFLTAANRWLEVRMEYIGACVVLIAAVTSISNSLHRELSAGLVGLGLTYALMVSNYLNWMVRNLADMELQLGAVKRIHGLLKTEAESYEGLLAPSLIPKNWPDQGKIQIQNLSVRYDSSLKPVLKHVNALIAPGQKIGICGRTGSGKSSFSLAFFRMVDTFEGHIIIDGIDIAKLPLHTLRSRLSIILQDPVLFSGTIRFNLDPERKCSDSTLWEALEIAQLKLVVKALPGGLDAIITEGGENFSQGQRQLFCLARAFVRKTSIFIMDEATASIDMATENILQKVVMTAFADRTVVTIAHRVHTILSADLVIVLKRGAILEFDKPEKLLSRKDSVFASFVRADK
Sequence of sulfonylurea receptor (Q14654 whole entry partner, the tested form may be a part): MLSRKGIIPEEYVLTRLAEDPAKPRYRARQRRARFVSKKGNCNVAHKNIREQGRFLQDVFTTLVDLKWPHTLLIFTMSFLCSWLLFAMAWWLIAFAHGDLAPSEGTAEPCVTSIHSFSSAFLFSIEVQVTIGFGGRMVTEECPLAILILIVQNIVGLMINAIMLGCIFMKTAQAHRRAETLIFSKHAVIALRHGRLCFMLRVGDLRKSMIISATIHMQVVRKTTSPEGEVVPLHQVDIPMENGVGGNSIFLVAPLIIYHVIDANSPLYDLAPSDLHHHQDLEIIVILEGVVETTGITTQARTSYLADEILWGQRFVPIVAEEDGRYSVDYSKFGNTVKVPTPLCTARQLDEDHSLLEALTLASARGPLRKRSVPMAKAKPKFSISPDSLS

Compound: CC(=O)c1ccc(S(=O)(=O)NC(=O)NC2CCCCC2)cc1 [Acetohexamide]
- Duration of Action [1]: 12 to 18 h

Compound: CCCNC(=O)NS(=O)(=O)c1ccc(Cl)cc1 [Chlorpropamide]
- Duration of Action [1]: 60 h

Compound: [Cr] [Cr, Chromium]
- reduction of metformin requirements [2]: more than one-half

Compound: CCC1=C(C)CN(C(=O)NCCc2ccc(S(=O)(=O)NC(=O)N[C@H]3CC[C@H](C)CC3)cc2)C1=O [Glimepiride]
- Duration of Action [1]: 16 to 24 h

Compound: Cc1cnc(C(=O)NCCc2ccc(S(=O)(=O)NC(=O)NC3CCCCC3)cc2)cn1 [Glipizide (XL), Glipizide]
- Duration of Action [1]: 24 h

- concentration range that saturates sulfonylurea receptors [3]: low nM
Compound: Cc1cnc(C(=O)NCCc2ccc(S(=O)(=O)NC(=O)NC3CCCCC3)cc2)cn1 [Glipizide]
- Duration of Action [1]: 12 to 24 h

Compound: COc1ccc(Cl)cc1C(=O)NCCc1ccc(S(=O)(=O)NC(=O)NC2CCCCC2)cc1 [Glyburide]
- glycolytic flux and lactate production [4]: dramatic increase

- lactic acidosis, reported frequency [5]: 3 cases per 100,000 patient-years
Compound: CN(C)C(=N)N=C(N)N [Metformin, metformin]
- lactic acidosis, reported incidence [5]: 0.03 /1,000 patient-years exposure
- decrease of low-density lipoprotein (LDL) cholesterol levels (monotherapy): 10% to 15%
- decrease of plasma triglyceride levels (monotherapy): 10% to 15%
- weight loss (patients with type 2 diabetes, first 6 months of treatment): 2 to 3 kg
- gastrointestinal side effects (diarrhea, nausea, abdominal pain, metallic taste) [6]: 20% to 30%
- weight change [7]: significant weight loss

Compound: CCCCNC(=O)NS(=O)(=O)c1ccc(C)cc1 [Tolbutamide]
- Duration of Action [1]: 6 to 12 h

Compound: O=C1O[C@H]([C@@H](O)CO)C(O)=C1O [ascorbate, ascorbic acid]
- decrease of cellular insulin glycation [8]: 66–80%

- amount absorbed from the intestine ([9]; oral): 15 to 87 % of ingested carnitine
- tissue concentrations relative to plasma ([9]; skeletal and cardiac muscle, active transport): 20- to 50 fold
Compound: C[N+](C)(C)CC(O)CC(=O)[O-] (stereo not drawn) [carnitine, beta-hydroxy-gamma-N-trimethylaminobutyric acid]

Compound: COC1=C(OC)C(=O)C(C/C=C(\C)CC/C=C(\C)CC/C=C(\C)CC/C=C(\C)CC/C=C(\C)CC/C=C(\C)CC/C=C(\C)CC/C=C(\C)CC/C=C(\C)CCC=C(C)C)=C(C)C1=O [coenzyme Q10, Ubiquinone]
- HDL-cholesterol [10]: increased
- systolic and diastolic blood pressure, fasting and 2-h plasma insulin, glucose, triglycerides, lipid peroxides, malondialdehyde and diene conjugates [10]: all reduced

Compound: NC(=O)c1cccnc1 [nicotinamide]
- concentration of maximum effect on recovery of glucose-induced insulin secretion [11]: 25 mmol/L

Compound: O=S(=O)([O-])[O-].[O]=[V+2] [vanadyl sulfate]
- duration of effects after discontinuation ([12]; 100 mg/day for 3 weeks): up to 2 weeks
- hepatic and peripheral insulin sensitivity ([12]; 100 mg/day, after 3 weeks): appear to improve

- insulin efficiency [13]: further worsen insulin efficiency
Compound: vitamin E
